Reference: patent US20240041042A1, “1-(PYRIDYL)-5-AZINYLPYRAZOLE DERIVATIVES, AND THEIR USE FOR CONTROL OF UNDESIRED PLANT GROWTH” (Bayer Aktiengesellschaft, priority 2020, published 2024)
Where two headings read alike, the source gives them in different places.

Legend:
Type in all cases: in vivo
Brassica napus (BRSNW) [1] = conditions: crop plant compatibility, in comparison to untreated controls
In short: (§1)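 Crop injury rated visually in percent against untreated plants roughly 3 weeks after treatment (0% no effect, 100% plants dead). Compounds, as WP or EC with 0.5% additive in 600 l/ha water, were applied to the covering soil right after sowing; greenhouse growth. Suffixes a, b, c denote different dosages.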

Oryza sativa (ORYSA) [2] = conditions: pre-emergence, crop plant compatibility, in comparison to untreated controls
In short: as §1

[3] = test system: Triticum aestivum (TRZAS); conditions: pre-emergence, crop plant compatibility, in comparison to untreated controls
In short: as §1

Zea mays (ZEAMX) [4] = conditions: pre-emergence, crop plant compatibility, in comparison to untreated controls
In short: as §1

Oryza sativa (ORYSA) [5] = conditions: crop plant compatibility
In short: (§2)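 Visual rating (% effect vs. untreated plants; 100% = plant death) made about 3 weeks after treatment. Plants had been sprayed at one-leaf stage, 2–3 weeks post-sowing, with aqueous WP/EC preparations containing 0.5% additive, 600 l/ha water volume; a, b, c mark dose levels.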

[6] = test system: Triticum aestivum (TRZAS); conditions: crop plant compatibility, effect vs untreated controls
In short: as §2

Zea mays (ZEAMX) [7] = conditions: for Post-emergence action against ZEAMX in %: crop plant compatibility, effect vs untreated controls; for Post-emergence action against ZEAMX in % (crop plant compatibility): 20 g/ha, effect in comparison to untreated controls
In short: as §2

Brassica napus (BRSNW) [8] = test: Post-emergence crop plant compatibility, BRSNW; conditions: effect in comparison to untreated controls
Method: Seeds of monocotyledonous and dicotyledonous weeds and crop plants are placed in sandy loam in plastic or organic planting pots, covered with soil and cultivated in a greenhouse under controlled growth conditions. 2 to 3 weeks after sowing, the test plants are treated at the one-leaf stage. The compounds of the invention, formulated in the form of wettable powders (WP) or as emulsion concentrates (EC), are then sprayed onto the green parts of the plants as aqueous suspension or emulsion with addition of 0.5% additive at a water application rate of 600 l/ha (converted). After the test plants have been kept in the greenhouse under optimum growth conditions for about 3 weeks, the activity of the preparations is rated visually in comparison to untreated controls. For example, 100% activity=the plants have died, 0% activity=like control plants.
The observed effects on selected crop plants are reported here in comparison to the untreated controls (values in %). The appendices “a”, “b” and “c” give differentiation by dosage used with otherwise the same crop plants tested.

Glycine max (GLXMA) [9] = conditions: pre-emergence, crop plant compatibility, in comparison to untreated controls
In short: as §1

Glycine max (GLXMA) [10] = test: Post-emergence crop plant compatibility, GLXMA; conditions: post-emergence, effect in comparison to untreated controls
In short: as §2

[11] = test system: Echinochloa crus-galli (ECHCG); test: Post-emergence herbicidal action against ECHCG; conditions: dosage 320 g/ha
In short: (§3)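 Rates were 320 g/ha or below, applied as aqueous WP/EC spray with 0.5% additive (600 l/ha) onto one-leaf-stage plants. About 3 weeks later in the greenhouse, damage was scored visually against untreated plants on a 0–100% scale, where 100% means plants died.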

Setaria viridis (SETVI) [12] = test: Post-emergence herbicidal action against SETVI; conditions: dosage 320 g/ha
In short: as §3

[13] = test system: Verconica persica (VERPE); test: Post-emergence herbicidal action against VERPE; conditions: 320 g/ha, VERPE
In short: as §3

Viola tricolor (VIOTR) [14] = test: Post-emergence herbicidal action against VIOTR; conditions: 320 g/ha
In short: as §3

[15] = test system: Digitaria sanguinalis (DIGSA); test: Pre-emergence herbicidal action against DIGSA
In short: (§4)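 Dosages of 320 g/ha or less; pre-emergence; WP or EC in aqueous spray, 0.5% additive, 600 l/ha; greenhouse; visual % effect after ~3 wk relative to control pots.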

[16] = test system: Polygonum convolvulus (POLCO); test: Pre-emergence herbicidal action against POLCO; conditions: dosage 320 g/ha
In short: as §4

Viola tricolor (VIOTR) [17] = test: Pre-emergence herbicidal action against VIOTR; conditions: 320 g/ha, Viola tricolor
In short: as §4

[18] = test system: Alopecurus myosuroides (ALOMY); test: Pre-emergence herbicidal action against ALOMY; conditions: 320 g/ha; scored visually after about 3 weeks; 100% = plants have died
In short: as §4

[19] = test system: Amaranthus retroflexus (AMARE); test: Pre-emergence herbicidal action against AMARE; conditions: 320 g/ha, visual scoring after about 3 weeks vs untreated controls
In short: as §4

Lolium rigidum (LOLRI) = test: Pre-emergence herbicidal action against LOLRI; conditions: dosage 320 g/ha
In short: as §4

Setaria viridis (SETVI) [20] = test: Pre-emergence herbicidal action against SETVI; conditions: dosage 320 g/ha
In short: as §4

[21] = test system: Verconica persica (VERPE); test: Pre-emergence herbicidal action against VERPE; conditions: dosage 320 g/ha
In short: as §4

[22] = test system: Amaranthus retroflexus (AMARE); test: Post-emergence herbicidal action against AMARE; conditions: 80 g/ha, visual rating about 3 weeks after treatment vs untreated controls (100% = plants have died, 0% = like control plants)
In short: as §3

[23] = 80 g/ha, effect in comparison to untreated controls
[24] = 320 g/ha, effect in comparison to untreated controls
[25] = 20 g/ha, effect vs untreated controls

Row | Pre-emergence action against BRSNW in % (Brassica napus (BRSNW) [1]; 80 g/ha) | Pre-emergence action against ORYSA in % (Oryza sativa (ORYSA) [2]; 80 g/ha) | Pre-emergence action against ORYSA in % (Oryza sativa (ORYSA) [2]; 320 g/ha) | Pre-emergence action against TRZAS in % ([3]; 80 g/ha) | Pre-emergence action against TRZAS in % ([3]; 320 g/ha) | Pre-emergence action against ZEAMX in % (Zea mays (ZEAMX) [4]; 80 g/ha) | Post-emergence action against ORYSA in % (Oryza sativa (ORYSA) [5]; [23]) | Post-emergence action against TRZAS in % ([6]; 80 g/ha) | Post-emergence action against BRSNW in % (Brassica napus (BRSNW) [8]; 80 g/ha) | Pre-emergence action against BRSNW in % (Brassica napus (BRSNW) [1]; 320 g/ha) | Pre-emergence action against GLXMA in % (Glycine max (GLXMA) [9]; 80 g/ha) | Pre-emergence action against GLXMA in % (Glycine max (GLXMA) [9]; 320 g/ha) | Pre-emergence action against ZEAMX in % (Zea mays (ZEAMX) [4]; 320 g/ha) | Post-emergence action against ORYSA in % (Oryza sativa (ORYSA) [5]; [25]) | Post-emergence action against TRZAS in % ([6]; 20 g/ha) | Post-emergence action against ZEAMX in % (crop plant compatibility) (Zea mays (ZEAMX) [7]) | Post-emergence action against ZEAMX in % (Zea mays (ZEAMX) [7]; 80 g/ha) | Post-emergence action against GLXMA in % (Glycine max (GLXMA) [10]; 20 g/ha) | Post-emergence action against GLXMA in % (Glycine max (GLXMA) [10]; 80 g/ha) | Post-emergence action against BRSNW in % (Brassica napus (BRSNW) [8]; 20 g/ha) | SMILES | further results
1 |  |  |  |  |  |  | 0% | 0% |  |  |  |  |  | 0% | 0% | 0% | 0% | 0% |  | 0% | COC(=O)CNC(=O)COc1nn(-c2cccnc2C)c(-c2cncc(F)c2)c1Br [II-37] | Post-emergence action against ECHCG in % [11]: 80%; Post-emergence action against SETVI in % (Setaria viridis (SETVI) [12]): 80%; Post-emergence action against VERPE in % [13]: 90%; Post-emergence action against VIOTR in % (Viola tricolor (VIOTR) [14]): 80%; Post-emergence action against ORYSA in % (Oryza sativa (ORYSA) [5]; [24]): 0%; Post-emergence action against TRZAS in % ([6]; 320 g/ha): 0%; Post-emergence action against ZEAMX in % (Zea mays (ZEAMX) [7]; 320 g/ha): 0%
2 | 0% | 0% | 10% | 0% | 0% | 0% | 0% | 0% |  |  |  | 20% | 0% | 0% | 0% | 0% |  | 0% | 0% | 0% | O=C(COc1nn(-c2ccnc(Cl)c2)c(-c2ccc(F)nc2)c1Br)NS(=O)(=O)CC(F)(F)F [III-20] | 
3 | 20% | 0% | 0% | 20% |  | 0% | 20% | 0% | 0% | 20% | 0% | 0% | 20% | 0% | 0% | 0% | 0% | 0% | 0% | 0% | COC(=O)CN(C)C(=O)COc1nn(-c2ccnc(Cl)c2)c(-c2ccc(F)nc2)c1Br [III-21] | 

Second part, the compound before the results:

Row | SMILES | Pre-emergence action against BRSNW in % (Brassica napus (BRSNW) [1]; 80 g/ha) | Pre-emergence action against ORYSA in % (Oryza sativa (ORYSA) [2]; 80 g/ha) | Pre-emergence action against ORYSA in % (Oryza sativa (ORYSA) [2]; 320 g/ha) | Pre-emergence action against TRZAS in % ([3]; 80 g/ha) | Pre-emergence action against TRZAS in % ([3]; 320 g/ha) | Pre-emergence action against ZEAMX in % (Zea mays (ZEAMX) [4]; 80 g/ha) | Post-emergence action against ORYSA in % (Oryza sativa (ORYSA) [5]; [23]) | Post-emergence action against TRZAS in % ([6]; 80 g/ha) | Post-emergence action against BRSNW in % (Brassica napus (BRSNW) [8]; 80 g/ha) | Pre-emergence action against BRSNW in % (Brassica napus (BRSNW) [1]; 320 g/ha) | Pre-emergence action against GLXMA in % (Glycine max (GLXMA) [9]; 80 g/ha) | Pre-emergence action against GLXMA in % (Glycine max (GLXMA) [9]; 320 g/ha) | Pre-emergence action against ZEAMX in % (Zea mays (ZEAMX) [4]; 320 g/ha) | Post-emergence action against ORYSA in % (Oryza sativa (ORYSA) [5]; [25]) | Post-emergence action against TRZAS in % ([6]; 20 g/ha) | Post-emergence action against ZEAMX in % (crop plant compatibility) (Zea mays (ZEAMX) [7]) | Post-emergence action against ZEAMX in % (Zea mays (ZEAMX) [7]; 80 g/ha) | Post-emergence action against GLXMA in % (Glycine max (GLXMA) [10]; 20 g/ha) | Post-emergence action against GLXMA in % (Glycine max (GLXMA) [10]; 80 g/ha) | Post-emergence action against BRSNW in % (Brassica napus (BRSNW) [8]; 20 g/ha) | further results
4 | O=C(O)C1CCN(C(=O)COc2nn(-c3ccccn3)c(-c3ccc(F)nc3)c2Br)CC1 [Example I-62] | 0% | 0% | 0% | 0% | 0% | 0% | 0% | 0% | 20% |  |  |  |  |  |  |  |  |  |  |  | Post-emergence action against ORYSA in % (Oryza sativa (ORYSA) [5]; [24]): 0%; Post-emergence action against TRZAS in % ([6]; 320 g/ha): 0%; Post-emergence action against ZEAMX in % (Zea mays (ZEAMX) [7]; 320 g/ha): 20%
5 | CCOC(=O)COc1nn(-c2ncccc2F)c(-c2ccc(F)nc2)c1I [Example I-55] | 0% | 0% | 0% | 0% | 0% | 0% | 0% | 0% | 0% | 0% | 0% | 0% | 0% | 0% | 0% | 0% | 0% | 0% | 0% | 0% | 
6 | COC(=O)C1CCN(C(=O)COc2nn(-c3ccccn3)c(-c3ccc(F)nc3)c2Br)C1 (stereo not shown) [Example I-109] | 10% | 10% | 10% | 0% | 10% | 10% | 0% | 10% | 10% | 10% | 20% | 20% | 10% | 0% | 0% | 10% | 10% |  |  | 0% | 
7 | CCOC(=O)C(Oc1nn(-c2ccccn2)c(-c2ccc(F)nc2)c1Br)C(C)C (stereo not shown) [Example I-349] |  |  |  | 10% |  | 10% | 0% |  | 20% |  | 0% | 10% | 20% |  |  |  |  |  | 0% |  | Pre-emergence action against DIGSA in % ([15]; 80 g/ha, visual scoring after about 3 weeks vs untreated controls): 80%; Pre-emergence action against DIGSA in % ([15]; dosage 320 g/ha): 90%; Pre-emergence action against POLCO in % [16]: 80%; Pre-emergence action against VIOTR in % (Viola tricolor (VIOTR) [17]): 80%; Post-emergence action against VIOTR in % (Viola tricolor (VIOTR) [14]): 80%; Post-emergence action against ORYSA in % (Oryza sativa (ORYSA) [5]; [24]): 10%
8 | C[C@@H](Oc1nn(-c2ncccc2F)c(-c2ccc(F)nc2)c1Br)C(=O)O [Example I-50] | 0% |  |  | 10% | 10% | 0% | 10% | 10% | 20% | 20% |  |  | 0% | 10% | 10% | 0% | 0% | 0% | 10% | 10% | 
9 | COC(=O)CNC(=O)COc1nn(-c2ccccn2)c(-c2ccc(F)nc2)c1C1CC1 [Example I-70] | 20% | 0% | 10% | 10% |  | 0% | 0% | 10% |  |  | 10% |  | 0% | 0% | 0% | 0% | 10% |  |  | 20% | Pre-emergence action against ALOMY [18]: 90%; Pre-emergence action against AMARE in % [19]: 90%; Pre-emergence action against LOLRI in % (Lolium rigidum (LOLRI)): 90%; Pre-emergence action against SETVI in % (Setaria viridis (SETVI) [20]): 90%; Pre-emergence action against VERPE in % [21]: 80%; Pre-emergence action against VIOTR in % (Viola tricolor (VIOTR) [17]): 90%; Post-emergence action against AMARE in % [22]: 90%
